Patent US6525001B1, “Substituted pyrimidine and pyridine herbicides” (Mid-American Commercialization Corporation, priority 1997, dated 2003)

Tests used:
Type in all cases: in vivo
[1] = tested on: fall panicum (Panicum dichotomiflorum); test: Test C; parameters: key: 0 was no effect; 100 was complete control; details: PREEMERGENCE
[2] = tested on: common ragweed (Ambrosia elatior); test: Test C; details: PREEMERGENCE
[3] = tested on: large crabgrass (Digitaria sanguinalis); test: Test E pre-/postemergence/post directed
Summary of the method: (§1)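 Injury scored visually on a 0–100 scale (100 = complete control) 13 to 21 days after treatment. Test chemicals, formulated with surfactant in non-phytotoxic solvent, were applied to soil within one day of planting, to plants at two to four leaves (three to twenty cm), or as directed spray at plant base.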

[4] = tested on: common ragweed (Ambrosia elatior); test: Test E pre-/postemergence/post directed
Summary of the method: as §1

[5] = tested on: Spanishneedles (Bidens bipinnata); test: Test E pre-/postemergence/post directed
Summary of the method: as §1

[6] = tested on: itchgrass (Rottboellia exaltata); test: Test E pre-/postemergence/post directed
Summary of the method: as §1

[7] = tested on: sandbur (Cenchrus echinatus); test: Test E pre-/postemergence/post directed; details: PREEMERGENCE
Summary of the method: as §1

[8] = tested on: bermudagrass (Cynodon dactylon); test: Test E pre-/postemergence/post directed
Summary of the method: as §1

[9] = tested on: cocklebur (Xanthium strumarium); test: Test C; parameters: key: 0 was no effect; 100 was complete control; details: PREEMERGENCE
[10] = tested on: large crabgrass (Digitaria sanguinalis); test: Test C; parameters: key: 0 was no effect; 100 was complete control; details: PREEMERGENCE
[11] = tested on: arrowleaf sida (Sida rhombifolia); test: Test C; details: PREEMERGENCE
[12] = tested on: redroot pigweed (Amaranthus retroflexus); test: Test C; parameters: key: 0 was no effect; 100 was complete control; details: PREEMERGENCE
[13] = tested on: dallisgrass (Paspalum dilatatum); test: Test E pre-/postemergence/post directed; parameters: key: 0 is no effect; 100 is complete control
Summary of the method: as §1

[14] = tested on: common ragweed (Ambrosia elatior); test: Test E pre-/postemergence/post directed; parameters: key: 0 is no effect; 100 is complete control; details: PREEMERGENCE
Summary of the method: as §1

[15] = tested on: guineagrass (Panicum maximum); test: Test E pre-/postemergence/post directed; parameters: key: 0 is no effect; 100 is complete control
Summary of the method: as §1

[16] = tested on: goosegrass (Eleusine indica); test: Test E pre-/postemergence/post directed; parameters: key: 0 is no effect; 100 is complete control
Summary of the method: as §1

[17] = tested on: ladysthumb smartweed (Polygonum persicaria); test: Test C; parameters: key: 0 was no effect; 100 was complete control; details: PREEMERGENCE
[18] = tested on: velvetleaf (Abutilon theophrasti); test: Test C; details: PREEMERGENCE
[19] = tested on: giant foxtail (Setaria faberii); test: Test C; parameters: key: 0 was no effect; 100 was complete control; details: PREEMERGENCE
[20] = tested on: barnyardgrass (Echinochloa crus-galli); test: Test C; details: PREEMERGENCE

Cc1cnc(-c2ccc(C(F)(F)F)cc2)nc1Cc1cccc(OC(F)(F)F)c1 [Compound 15]
60: Plant response rating, Itchgrass ([6]; PREEMERGENCE, Rate 125 g/ha) | Plant response rating, Redroot pigweed ([12]; Rate 35 g/ha)
50: Plant response rating, Spanishneedles ([5]; PREEMERGENCE, Rate 32 g/ha) | Plant response rating, Sandbur ([7]; Rate 125 g/ha) | Plant response rating, Dallisgrass ([13]; POSTEMERGENCE, Rate 250 g/ha)
20: Plant response rating, Common ragweed ([2]; Rate 70 g/ha) | Plant response rating, Sandbur ([7]; Rate 64 g/ha) | Plant response rating, Bermudagrass ([8]; POSTEMERGENCE, Rate 125 g/ha) | Plant response rating, Bermudagrass ([8]; POSTEMERGENCE, Rate 250 g/ha) | Plant response rating, Guineagrass ([15]; POSTEMERGENCE, Rate 125 g/ha) | Plant response rating, Goosegrass ([16]; POSTEMERGENCE, Rate 125 g/ha) | Plant response rating, Ladysthumb ([17]; Rate 70 g/ha) | Plant response rating, Velvetleaf ([18]; Rate 70 g/ha)
35: Plant response rating, Barnyardgrass ([20]; Rate 70 g/ha)
40: Plant response rating, Fall panicum ([1]; Rate 35 g/ha) | Plant response rating, Large crabgrass ([3]; POSTEMERGENCE, Rate 250 g/ha) | Plant response rating, Guineagrass ([15]; POSTEMERGENCE, Rate 250 g/ha)
5: Plant response rating, Com. ragweed ([4]; POSTEMERGENCE, Rate 125 g/ha) | Plant response rating, Spanishneedles ([5]; POSTEMERGENCE, Rate 125 g/ha) | Plant response rating, Cocklebur ([9]; Rate 140 g/ha) | Plant response rating, Dallisgrass ([13]; POSTEMERGENCE, Rate 125 g/ha) | Plant response rating, Velvetleaf ([18]; Rate 35 g/ha)
85: Plant response rating, Itchgrass ([6]; POSTEMERGENCE, Rate 250 g/ha) | Plant response rating, Arrowleaf sida ([11]; Rate 70 g/ha) | Plant response rating, Arrowleaf sida ([11]; Rate 140 g/ha) | Plant response rating, Redroot pigweed ([12]; Rate 70 g/ha) | Plant response rating, Barnyardgrass ([20]; Rate 140 g/ha)
98: Plant response rating, Large crabgrass ([3]; PREEMERGENCE, Rate 32 g/ha) | Plant response rating, Com. ragweed ([4]; PREEMERGENCE, Rate 125 g/ha) | Plant response rating, Spanishneedles ([5]; PREEMERGENCE, Rate 125 g/ha) | Plant response rating, Bermudagrass ([8]; PREEMERGENCE, Rate 32 g/ha) | Plant response rating, Bermudagrass ([8]; PREEMERGENCE, Rate 64 g/ha) | Plant response rating, Bermudagrass ([8]; PREEMERGENCE, Rate 125 g/ha) | Plant response rating, Bermudagrass ([8]; PREEMERGENCE, Rate 250 g/ha) | Plant response rating, Goosegrass ([16]; PREEMERGENCE, Rate 32 g/ha) | Plant response rating, Goosegrass ([16]; PREEMERGENCE, Rate 64 g/ha) | Plant response rating, Goosegrass ([16]; PREEMERGENCE, Rate 125 g/ha)
75: Plant response rating, Common ragweed ([2]; Rate 140 g/ha)
95: Plant response rating, Dallisgrass ([13]; PREEMERGENCE, Rate 32 g/ha)
10: Plant response rating, Common ragweed ([2]; Rate 35 g/ha) | Plant response rating, Large crabgrass ([3]; POSTEMERGENCE, Rate 125 g/ha) | Plant response rating, Com. ragweed ([4]; POSTEMERGENCE, Rate 250 g/ha) | Plant response rating, Spanishneedles ([5]; POSTEMERGENCE, Rate 250 g/ha) | Plant response rating, Itchgrass ([6]; PREEMERGENCE, Rate 32 g/ha) | Plant response rating, Sandbur ([7]; Rate 32 g/ha) | Plant response rating, Barnyardgrass ([20]; Rate 35 g/ha)
30: Plant response rating, Spanishneedles ([5]; PREEMERGENCE, Rate 64 g/ha) | Plant response rating, Itchgrass ([6]; PREEMERGENCE, Rate 64 g/ha) | Plant response rating, Goosegrass ([16]; POSTEMERGENCE, Rate 250 g/ha)
0: Plant response rating, Cocklebur ([9]; Rate 35 g/ha) | Plant response rating, Cocklebur ([9]; Rate 70 g/ha) | Plant response rating, Ladysthumb ([17]; Rate 35 g/ha)
100: Plant response rating, Fall panicum ([1]; Rate 140 g/ha) | Plant response rating, Large crabgrass ([10]; Rate 35 g/ha) | Plant response rating, Large crabgrass ([10]; Rate 70 g/ha) | Plant response rating, Large crabgrass ([10]; Rate 140 g/ha) | Plant response rating, Redroot pigweed ([12]; Rate 140 g/ha) | Plant response rating, Dallisgrass ([13]; PREEMERGENCE, Rate 64 g/ha) | Plant response rating, Dallisgrass ([13]; PREEMERGENCE, Rate 125 g/ha) | Plant response rating, Dallisgrass ([13]; PREEMERGENCE, Rate 250 g/ha) | Plant response rating, Com. ragweed ([14]; Rate 32 g/ha) | Plant response rating, Com. ragweed ([14]; Rate 64 g/ha) | Plant response rating, Com. ragweed ([14]; Rate 250 g/ha) | Plant response rating, Guineagrass ([15]; PREEMERGENCE, Rate 64 g/ha) | Plant response rating, Guineagrass ([15]; PREEMERGENCE, Rate 125 g/ha) | Plant response rating, Guineagrass ([15]; PREEMERGENCE, Rate 250 g/ha) | Plant response rating, Goosegrass ([16]; PREEMERGENCE, Rate 250 g/ha) | Plant response rating, Giant foxtail ([19]; Rate 70 g/ha) | Plant response rating, Giant foxtail ([19]; Rate 140 g/ha)
80: Plant response rating, Fall panicum ([1]; Rate 70 g/ha) | Plant response rating, Itchgrass ([6]; POSTEMERGENCE, Rate 125 g/ha) | Plant response rating, Itchgrass ([6]; PREEMERGENCE, Rate 250 g/ha) | Plant response rating, Arrowleaf sida ([11]; Rate 35 g/ha)
70: Plant response rating, Velvetleaf ([18]; Rate 140 g/ha) | Plant response rating, Giant foxtail ([19]; Rate 35 g/ha)
90: Plant response rating, Guineagrass ([15]; PREEMERGENCE, Rate 32 g/ha) | Plant response rating, Ladysthumb ([17]; Rate 140 g/ha)
